Patent US8324264B1, “Inhibitors of bacterial biofilms and related methods” (Sequoia Sciences, Inc., priority 2011, dated 2012)

How the values were obtained:
E. coli biofilms = test: Biofilm growth assay (spreading biofilm on semi-solid agar), E. coli; format: cell-based; settings: biofilm growth assay, overnight 37° C., vs negative controls; Tables 1-5
Summary of the method: (§1)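 Compound added to semi-solid agar: M8 with 0.2% glucose, 100 μM CaCl2, 1 mM MgSO4, 0.5% Casamino acids (P. aeruginosa) or LB with 0.6% agar, 0.5% glucose (E. coli). Center-inoculated with 5 μL overnight culture, incubated overnight at 37 °C; value is concentration (μg/ml) reducing spreading area ≥85% versus negative controls.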

P. aeruginosa biofilms = test: Biofilm growth assay (spreading biofilm on semi-solid agar), P. aeruginosa; format: cell-based; settings: biofilm growth assay, overnight 37° C., vs negative controls; Tables 1-5
Summary of the method: as §1

Compound	E. coli: concentration that reduces the area of the spreading biofilm by greater than or equal to 85% (E. coli biofilms) [µg/mL]	P. aeruginosa: concentration that reduces the area of the spreading biofilm by greater than or equal to 85% (P. aeruginosa biofilms) [µg/mL]
CC1(C)CC[C@]2(C(=O)O)CC[C@]3(C)C(=C(c4coc(CN5CCCC5)c4)CC4[C@@]5(C)Cc6c(n[nH]c6N)C(C)(C)C5CC[C@]43C)C2C1 (stereo partly drawn) [Example 38, (4aS,6aS,6bR,13aR)-12-Amino-2,2,6a,6b,9,9,13a-heptamethyl-15-(5-(pyrrolidin-1-ylmethyl)furan-3-yl)-2,3,4,4a,5,6,6a,6b,7,8,8a,9,11,13,13a,13b,14,15b-octadecahydro-1H-chryseno[1,2-f]indazole-4-a-carboxylic acid]	2	1
CC1(C)CC[C@]2(C(=O)O)CC[C@]3(C)C(=C(c4coc(CN5CCNCC5)c4)CC4[C@@]5(C)Cc6c(n[nH]c6N)C(C)(C)C5CC[C@]43C)C2C1 (stereo partly drawn) [Example 39, (4aS,6aS,6bR,13aR)-12-Amino-2,2,6a,6b,9,9,13a-heptamethyl-15-(5-(piperazin-1-ylmethyl)furan-3-yl)-2,3,4,4a,5,6,6a,6b,7,8,8a,9,11,13,13a,13b,14,15b-octadecahydro-1H-chryseno[1,2-f]indazole-4-a-carboxylic acid]	2	1
CC1(C)CC[C@]2(C(=O)O)CC[C@]3(C)C(=C(c4coc(CN5CCOCC5)c4)CC4[C@@]5(C)Cc6c(n[nH]c6N)C(C)(C)[C@@H]5CC[C@]43C)[C@@H]2C1 (stereo partly drawn) [Example 40, (4aS,6aS,6bR,8aR,13aR,15bS)-12-Amino-2,2,6a,6b,9,9,13a-heptamethyl-15-(5-(morpholinomethyl)furan-3-yl)-2,3,4,4a,5,6,6a,6b,7,8,8a,9,11,13,13a,13b,14,15b-octadecahydro-1H-chryseno[1,2-f]indazole-4-a-carboxylic acid]	2	0.5
CC1(C)CC[C@]2(C(=O)O)CC[C@]3(C)C(=C(c4ccc(N)nc4)CC4[C@@]5(C)Cc6c(n[nH]c6N)C(C)(C)[C@@H]5CC[C@]43C)[C@@H]2C1 (stereo partly drawn) [Example 41, (4aS,6aS,6bR,8aR,13aR,15bS)-12-Amino-15-(6-aminopyridin-3-yl)-2,2,6a,6b,9,9,13a-heptamethyl-2,3,4,4a,5,6,6a,6b,7,8,8a,9,11,13,13a,13b,14,15b-octadecahydro-1H-chryseno[1,2-f]indazole-4-a-carboxylic acid]	2	1
COc1ccc(C2=C3[C@@H]4CC(C)(C)CC[C@]4(C(=O)O)CC[C@@]3(C)[C@]3(C)CC[C@H]4C(C)(C)c5n[nH]c(N)c5C[C@]4(C)C3C2)cn1 (stereo partly drawn) [Example 42, (4aS,6aS,6bR,8aR,13aR,15bS)-12-Amino-15-(6-methoxypyridin-3-yl)-2,2,6a,6b,9,9,13a-heptamethyl-2,3,4,4a,5,6,6a,6b,7,8,8a,9,11,13,13a,13b,14,15b-octadecahydro-1H-chryseno[1,2-f]indazole-4-a-carboxylic acid]	1	0.25
CNc1ccc(C2=C3[C@@H]4CC(C)(C)CC[C@]4(C(=O)O)CC[C@@]3(C)[C@]3(C)CC[C@H]4C(C)(C)c5n[nH]c(N)c5C[C@]4(C)C3C2)cn1 (stereo partly drawn) [Example 43, (4aS,6aS,6bR,8aR,13aR,15bS)-12-Amino-2,2,6a,6b,9,9,13a-heptamethyl-15-(6-(methylamino)pyridin-3-yl)-2,3,4,4a,5,6,6a,6b,7,8,8a,9,11,13,13a,13b,14,15b-octadecahydro-1H-chryseno[1,2-f]indazole-4-a-carboxylic acid]	1	1
CN(C)c1ccc(C2=C3[C@@H]4CC(C)(C)CC[C@]4(C(=O)O)CC[C@@]3(C)[C@]3(C)CC[C@H]4C(C)(C)c5n[nH]c(N)c5C[C@]4(C)C3C2)cn1 (stereo partly drawn) [Example 44, (4aS,6aS,6bR,8aR,13aR,15bS)-12-Amino-15-(6-(dimethylamino)pyridin-3-yl)-2,2,6a,6b,9,9,13a-heptamethyl-2,3,4,4a,5,6,6a,6b,7,8,8a,9,11,13,13a,13b,14,15b-octadecahydro-1H-chryseno[1,2-f]indazole-4-a-carboxylic acid]	2	0.5
CC1(C)CC[C@]2(C(=O)O)CC[C@]3(C)C(=C(c4ccc(N5CCCC5)nc4)CC4[C@@]5(C)Cc6c(n[nH]c6N)C(C)(C)C5CC[C@]43C)C2C1 (stereo partly drawn) [Example 45, (4aS,6aS,6bR,13aR)-12-Amino-2,2,6a,6b,9,9,13a-heptamethyl-15-(6-(pyrrolidin-1-yl)pyridin-3-yl)-2,3,4,4a,5,6,6a,6b,7,8,8a,9,11,13,13a,13b,14,15b-octadecahydro-1H-chryseno[1,2-f]indazole-4-a-carboxylic acid]	1	0.5
CC1(C)CC[C@]2(C(=O)O)CC[C@]3(C)C(=C(c4cccc5cnccc45)CC4[C@@]5(C)Cc6c(n[nH]c6N)C(C)(C)C5CC[C@]43C)C2C1 (stereo partly drawn) [Example 46, (4aS,6aS,6bR,13aR)-12-Amino-15-(isoquinolin-5-yl)-2,2,6a,6b,9,9,13a-heptamethyl-2,3,4,4a,5,6,6a,6b,7,8,8a,9,11,13,13a,13b,14,15b-octadecahydro-1H-chryseno[1,2-f]indazole-4-a-carboxylic acid]	1	0.5
CC1(C)CC[C@]2(C(=O)O)CC[C@]3(C)C(=C(c4cccc5c4CCNC5)CC4[C@@]5(C)Cc6c(n[nH]c6N)C(C)(C)C5CC[C@]43C)C2C1 (stereo partly drawn) [Example 47, (4aS,6aS,6bR,13aR)-12-Amino-2,2,6a,6b,9,9,13a-heptamethyl-15-(1,2,3,4-tetrahydroisoquinolin-5-yl)-2,3,4,4a,5,6,6a,6b,7,8,8a,9,11,13,13a,13b,14,15b-octadecahydro-1H-chryseno[1,2-f]indazole-4-a-carboxylic acid]	1	0.5
CC1(C)CC[C@]2(C(=O)O)CC[C@]3(C)C(=C(c4cccc5[nH]ccc45)CC4[C@@]5(C)Cc6c(n[nH]c6N)C(C)(C)C5CC[C@]43C)C2C1 (stereo partly drawn) [Example 48, (4aS,6aS,6bR,13aR)-12-Amino-15-(1H-indol-4-yl)-2,2,6a,6b,9,9,13a-heptamethyl-2,3,4,4a,5,6,6a,6b,7,8,8a,9,11,13,13a,13b,14,15b-octadecahydro-1H-chryseno[1,2-f]indazole-4-a-carboxylic acid]	1	0.5
CC1(C)CC[C@]2(C(=O)O)CC[C@]3(C)C(=C(c4ccc5[nH]ccc5c4)CC4[C@@]5(C)Cc6c(n[nH]c6N)C(C)(C)C5CC[C@]43C)C2C1 (stereo partly drawn) [Example 49, (4aS,6aS,6bR,13aR)-12-Amino-15-(1H-indol-5-yl)-2,2,6a,6b,9,9,13a-heptamethyl-2,3,4,4a,5,6,6a,6b,7,8,8a,9,11,13,13a,13b,14,15b-octadecahydro-1H-chryseno[1,2-f]indazole-4-a-carboxylic acid]	>1	0.5
CC1(C)CC[C@]2(C(=O)O)CC[C@]3(C)C(=C(c4ccc(N5CCNCC5)cc4)CC4[C@@]5(C)Cc6c(n[nH]c6N)C(C)(C)C5CC[C@]43C)C2C1 (stereo partly drawn) [Example 50, (4aS,6aS,6bR,13aR)-12-Amino-2,2,6a,6b,9,9,13a-heptamethyl-15-(4-(piperazin-1-yl)phenyl)-2,3,4,4a,5,6,6a,6b,7,8,8a,9,11,13,13a,13b,14,15b-octadecahydro-1H-chryseno[1,2-f]indazole-4-a-carboxylic acid]	1	2
CC1(C)CC[C@]2(C(=O)O)CC[C@]3(C)C(=C(c4ccc(N5CCOCC5)cc4)CC4[C@@]5(C)Cc6c(n[nH]c6N)C(C)(C)C5CC[C@]43C)C2C1 (stereo partly drawn) [Example 51, (4aS,6aS,6bR,13aR)-12-Amino-2,2,6a,6b,9,9,13a-heptamethyl-15-(4-morpholinophenyl)-2,3,4,4a,5,6,6a,6b,7,8,8a,9,11,13,13a,13b,14,15b-octadecahydro-1H-chryseno[1,2-f]indazole-4-a-carboxylic acid]	2	0.5
CC1(C)CC[C@]2(C(=O)O)CC[C@]3(C)C(=C(c4ccc(CN5CCOCC5)cc4)CC4[C@@]5(C)Cc6c(n[nH]c6N)C(C)(C)C5CC[C@]43C)C2C1 (stereo partly drawn) [Example 52, (4aS,6aS,6bR,13aR)-12-Amino-2,2,6a,6b,9,9,13a-heptamethyl-15-(4-(morpholinomethyl)phenyl)-2,3,4,4a,5,6,6a,6b,7,8,8a,9,11,13,13a,13b,14,15b-octadecahydro-1H-chryseno[1,2-f]indazole-4-a-carboxylic acid]	2	1
